Reference: patent USRE46943E1, “Radioprotector compounds and methods” (PETER MACCALLUM CANCER INSTITUTE, priority 2010, dated 2018)

Assays:
[1] = test system: transformed human keratinocyte cell line (FEP 1811); assay: Clonogenic survival cell culture assay for cytotoxicity; assay type: cell-based; settings: Homo sapiens, Keratinocyte, light or radiation study; un-irradiated keratinocytes, one hour drug exposure, colonies counted after eight days; read-out: C50 (concentration of radioprotector that results in 50% clonogenic survival)
Procedure: • i. […] In appropriate cases, tautomers are drawn to illustrate potential hydrogen-bond donating configurations into the minor groove of DNA. • ii. 2-Amino-4-(5′-(4″-methylpiperazin-1″-yl)benzimidazol-2′-yl)aniline was prepared by hydrogenation of 4-(5′-(4″-methylpiperazin-1″-yl)benzimidazol-2′-yl)-2-nitroaniline, using a modification of the method of Kelly et al, Aust. […] 2-Amino-4-(5′-(piperidin-1″-yl)benzimidazol-2′-yl)aniline was prepared by hydrogenation of 2-nitro-4-(5′-(piperidin-1″-yl)benzimidazol-2′-yl)aniline, using a modification of the method of Kelly et al, Aust. […] Ethyl 4-amino-3-nitrobenzenecarboximidate hydrochloride was prepared by reaction of 4-amino-3-nitrobenzonitrile with dry HCl gas in ethanol, using the method of Kelly et al, Aust. […] 5-(4′-Methylpiperazin-1′-yl)-2-nitroaniline was prepared using a modification of the method of Kelly et al, Aust. […] The following chemicals were obtained from the chemical suppliers indicated: 2-furaldehyde (Aldrich), 2-pyridinecarboxaldehyde (Aldrich), 3-fluoropyridine-2-carbaldehyde (Maybridge), 3-trifluoromethylpyridine-2-carboxaldehyde (Apollo Scientific), 6-methyl-2-pyridinecarboxaldehyde (Matrix Scientific), 5-methylpyridine-2-carbonitrile (Apollo Scientific), 4-methyl-2-pyridinecarbonitrile (Aldrich), 4-chloro-2-pyridinecarbonitrile (Aldrich), 4-methoxypicolinonitrile (Combi-Blocks), pyrazinecarbonitrile (Aldrich), 2-quinolinecarbonitrile (Aldrich), 3-isoquinolinecarbonitrile (Aldrich), 1-isoquinolinecarboxylic acid (Aldrich), indazole-3-carboxylic acid (Aldrich), 2-hydroxynicotinic acid (Aldrich), 4-hydroxypiperidine (Aldrich), 1-methylhomopiperazine (Aldrich), 3-hydroxypiperidine (Aldrich), 4-(N-BOC-amino)piperidine (Aldrich), 4-methoxypiperidine (Acros), 4-methyl-3-nitrobenzonitrile (Aldrich), 5-chloro-2-nitroaniline (Aldrich), 2-cyanopyridine (Aldrich), methyl 4-amino-2-methoxybenzoic acid (Aldrich), 4-(trifluoromethyl)-2-pyridinecarbonitrile (Matrix Scientific), cis-2,6-dimethylmorphoiline (Acros), 5-(trifluoromethyl)-2-pyridinecarbonitrile (Advanced Chemical Intermediates) and 5-fluoro-2-pyridinecarbonitrile (Advanced Chemical Intermediates). • ix. […] Melting points were determined using an Electrothermal melting point apparatus, and are uncorrected. […] The abbreviations s for singlet, d for doublet, t for triplet, q for quartet, br for broad and m for muitiplet were used in the assignments of multiplicity. A value approximating the centre of a multiplet is quoted. […] The addition of a few drops of acetic acid to methanol-d4 solutions was used to enhance solubility for the acquisition of ^13C nmr spectra. Mass spectra were recorded on a Micromass Quattro II mass spectrometer and accurate mass analyses were carried out by the School of Chemistry at the University of Melbourne on a Finnigan LTQ-FT model high resolution mass spectrometer. Thin layer chromatography (TLC) was carried out using Merck silica gel 60 F254 aluminium sheets or Merck neutral aluminium oxide 150 F254 sheets. Flash column chromatography was carried out using Ajax silica gel 230-400 mesh. • xi. […] The details are described in detail in Martin et al (4) (the disclosure of which is included herein in its entirety by way of reference), but briefly, mid-log phase monolayer cultures are incubated with various concentrations of the test drugs for one hour, after which the monolayers are washed and dispersed into single cell suspensions using pronase, and finally appropriate numbers of cells are dispensed into Petri dishes. Colonies are counted after eight days incubation. […] The irradiation (with a dose rate of 0.6 Gy per minute) is started 30 minutes after addition of the test drug. After completion of irradiation, incubation of cultures is continued until the total time of exposure to the drug reaches 60 minutes. Cultures are then washed and plated for clonogenic survival as described for the cytotoxicity experiments.

[2] = test system: transformed human keratinocyte cell line (FEP 1811); assay: Clonogenic survival cell culture assay for radioprotective activity (12 Gy 137Cs gamma irradiation); assay type: cell-based; settings: 12 Gy; for DMF10 (dose modification factor at a concentration of 10 microM of radioprotector): 10 microM radioprotector; for DMFm (dose modification factor at maximum protection): DMF=Dp/Dc at survival level Sm; for PF (protection factor = Sm/So): survival at maximum protection vs irradiation only
Excerpt: PF is defined as a ratio of survival at maximum protection Sm and survival after irradiation only So: PF=Sm/So. DMF is defined as a ratio of doses that result in survival level of Sm in the presence Dp and the absence Dc of radioprotector: DMF=Dp/Dc. DMF10 is define in a similar way except that instead of Sm a survival at 10 microM of radioprotector is used.
PF (Protection Factor) is defined as a ratio of survival at maximum protection Sm and survival after irradiation only So:PF=Sm/So. DMF (Dose Modification Factor) is defined as a ratio of doses that result in survival level of Sm in the presence (Dp) and the absence (Dc) of radioprotector: DMF=Dp/Dc. DMF10 is defined in a similar way except that instead of Sm a survival at 10 microM of radioprotector is used.
• i. […] In appropriate cases, tautomers are drawn to illustrate potential hydrogen-bond donating configurations into the minor groove of DNA. • ii. 2-Amino-4-(5′-(4″-methylpiperazin-1″-yl)benzimidazol-2′-yl)aniline was prepared by hydrogenation of 4-(5′-(4″-methylpiperazin-1″-yl)benzimidazol-2′-yl)-2-nitroaniline, using a modification of the method of Kelly et al, Aust. […] 2-Amino-4-(5′-(piperidin-1″-yl)benzimidazol-2′-yl)aniline was prepared by hydrogenation of 2-nitro-4-(5′-(piperidin-1″-yl)benzimidazol-2′-yl)aniline, using a modification of the method of Kelly et al, Aust. […] Ethyl 4-amino-3-nitrobenzenecarboximidate hydrochloride was prepared by reaction of 4-amino-3-nitrobenzonitrile with dry HCl gas in ethanol, using the method of Kelly et al, Aust. […] 5-(4′-Methylpiperazin-1′-yl)-2-nitroaniline was prepared using a modification of the method of Kelly et al, Aust. […] The following chemicals were obtained from the chemical suppliers indicated: 2-furaldehyde (Aldrich), 2-pyridinecarboxaldehyde (Aldrich), 3-fluoropyridine-2-carbaldehyde (Maybridge), 3-trifluoromethylpyridine-2-carboxaldehyde (Apollo Scientific), 6-methyl-2-pyridinecarboxaldehyde (Matrix Scientific), 5-methylpyridine-2-carbonitrile (Apollo Scientific), 4-methyl-2-pyridinecarbonitrile (Aldrich), 4-chloro-2-pyridinecarbonitrile (Aldrich), 4-methoxypicolinonitrile (Combi-Blocks), pyrazinecarbonitrile (Aldrich), 2-quinolinecarbonitrile (Aldrich), 3-isoquinolinecarbonitrile (Aldrich), 1-isoquinolinecarboxylic acid (Aldrich), indazole-3-carboxylic acid (Aldrich), 2-hydroxynicotinic acid (Aldrich), 4-hydroxypiperidine (Aldrich), 1-methylhomopiperazine (Aldrich), 3-hydroxypiperidine (Aldrich), 4-(N-BOC-amino)piperidine (Aldrich), 4-methoxypiperidine (Acros), 4-methyl-3-nitrobenzonitrile (Aldrich), 5-chloro-2-nitroaniline (Aldrich), 2-cyanopyridine (Aldrich), methyl 4-amino-2-methoxybenzoic acid (Aldrich), 4-(trifluoromethyl)-2-pyridinecarbonitrile (Matrix Scientific), cis-2,6-dimethylmorphoiline (Acros), 5-(trifluoromethyl)-2-pyridinecarbonitrile (Advanced Chemical Intermediates) and 5-fluoro-2-pyridinecarbonitrile (Advanced Chemical Intermediates). • ix. […] Melting points were determined using an Electrothermal melting point apparatus, and are uncorrected. […] The abbreviations s for singlet, d for doublet, t for triplet, q for quartet, br for broad and m for muitiplet were used in the assignments of multiplicity. A value approximating the centre of a multiplet is quoted. […] The addition of a few drops of acetic acid to methanol-d4 solutions was used to enhance solubility for the acquisition of ^13C nmr spectra. Mass spectra were recorded on a Micromass Quattro II mass spectrometer and accurate mass analyses were carried out by the School of Chemistry at the University of Melbourne on a Finnigan LTQ-FT model high resolution mass spectrometer. Thin layer chromatography (TLC) was carried out using Merck silica gel 60 F254 aluminium sheets or Merck neutral aluminium oxide 150 F254 sheets. Flash column chromatography was carried out using Ajax silica gel 230-400 mesh. • xi.

Compound	melting point	IC50 [1] [µM]	DMF10 (dose modification factor at a concentration of 10 microM of radioprotector) [2]	DMFm (dose modification factor at maximum protection) [2]	PF (protection factor = Sm/So) [2]
CN1CCN(c2ccc3nc(-c4ccc5nc(-c6cnccn6)[nH]c5c4)[nH]c3c2)CC1 [Example 12, 2-(5′-(5″-(4′″-Methylpiperazin-1′″-yl)benzimidazol-2″-yl)benzimidazol-2′-yl)pyrazine]	175 °C (dec.)	54.2	1.15	1.29	6.5
CN1CCN(c2ccc3nc(-c4ccc5nc(-c6n[nH]c7ccccc67)[nH]c5c4)[nH]c3c2)CC1 [Example 16, 3-(5′-(5″-(4′″-Methylpiperazin-1′″-yl)benzimidazol-2″-yl)benzimidazol-2′-yl)indazole]	235 °C (dec.)	40.9	1.78	2.16	18.3
CN1CCN(c2ccc3nc(-c4ccc5nc(-c6ccc[nH]c6=O)[nH]c5c4)[nH]c3c2)CC1 [Example 18, 3-(5′-(5″-(4′″-Methylpiperazin-1′″-yl)benzimidazol-2″-yl)benzimidazol-2′-yl)pyridin-2(1H)-one]	244 to 248 °C	66.8	1.00	1.01	1.1
Cc1ccnc(-c2nc3ccc(-c4nc5ccc(N6CCOCC6)cc5[nH]4)cc3[nH]2)c1 [Example 21, 2-(5′-(5″-Morpholinobenzimidazol-2″-yl)benzimidazol-2′-yl)-4-methylpyridine]	214 to 230 °C	213	1.47	1.77	18.2
OC1CCN(c2ccc3nc(-c4ccc5nc(-c6ccccn6)[nH]c5c4)[nH]c3c2)CC1 [Example 22, 2-(5′-(5″-(4′″-Hydroxypiperidin-1′″-yl)benzimidazol-2″-yl)benzimidazol-2′-yl)pyridine]	226 to 229 °C	266	1.47	2.20	21.3
c1ccc(-c2nc3ccc(-c4nc5ccc(N6CCCCC6)cc5[nH]4)cc3[nH]2)nc1 [Example 24, 2-(5′-(5″-(Piperidin-1′″-yl)benzimidazol-2″-yl)benzimidazol-2′-yl)pyridine]	196 to 203 °C	24	1.35	1.42	7.5
CN1CCCN(c2ccc3nc(-c4ccc5nc(-c6ccccn6)[nH]c5c4)[nH]c3c2)CC1 [Example 25, 2-(5′-(5″-(4′″-Methyl-1′″,4′″-diazepan-1′″-yl)benzimidazol-2″-yl)benzimidazol-2′-yl)pyridine]	185 °C (dec.)	123	1.77	2.14	16.7
OC1CCCN(c2ccc3nc(-c4ccc5nc(-c6ccccn6)[nH]c5c4)[nH]c3c2)C1 (stereo not shown) [Example 26, 2-(5′-(5″-(3′″-Hydroxypiperidin-1′″-yl)benzimidazol-2″-yl)benzimidazol-2′-yl)pyridine]	278 to 282 °C	77.9	1.33	1.90	14.7

Further lines, with some results ahead:

melting point	Compound	IC50 [1] [µM]	DMF10 (dose modification factor at a concentration of 10 microM of radioprotector) [2]	DMFm (dose modification factor at maximum protection) [2]	PF (protection factor = Sm/So) [2]
224 to 229 °C	CN1CCN(c2ccc3nc(-c4ccc5nc(-c6cc7ccccc7cn6)[nH]c5c4)[nH]c3c2)CC1 [Example 14, 3-(5′-(5″-(4′″-Methylpiperazin-1′″-yl)benzimidazol-2″-yl)benzimidazol-2′-yl)isoquinoline]	26	2.34	2.45	25.1
214 to 217 °C	CN1CCN(c2ccc3nc(-c4ccc5nc(-c6nccc7ccccc67)[nH]c5c4)[nH]c3c2)CC1 [Example 15, 1-(5′-(5″-(4′″-Methylpiperazin-1′″-yl)benzimidazol-2″-yl)benzimidazol-2′-yl)isoquinoline]	26.9	1.70	1.85	36.9
202 °C (dec.)	c1ccc2cc(-c3nc4ccc(-c5nc6ccc(N7CCOCC7)cc6[nH]5)cc4[nH]3)ncc2c1 [Example 20, 3-(5′-(5″-Morpholinobenzimidazol-2″-yl)benzimidazol-2′-yl)isoquinoline]	172	1.52	1.57	11.4
